# Several values for one entry are separate records, joined by “and”; a condition that tells them apart may be missing. Equal entries are not always repeated.
# Columns and labels:
# KB = assay: Antiproliferative activity against human KB cells; type: functional, cell-based
# HepG2 [1] = assay: Antiproliferative activity against human HepG2 cells; type: functional, cell-based
# HCT-116 [2] = assay: Antiproliferative activity against human HCT-116 cells assessed as reduction in cell viability; type: functional, cell-based; conditions: Homo sapiens, HCT-116
# HeLa [3] = assay: Antiproliferative activity against human HeLa cells assessed as reduction in cell viability; type: functional, cell-based
# A549 [4] = assay: Antiproliferative activity against human A549 cells; type: functional, cell-based
# HCT-116 [5] = assay: Antiproliferative activity against human HCT-116 cells; type: functional, cell-based
# MV4-11 = assay: Antiproliferative activity against human MV4-11 cells; type: functional, cell-based
# HeLa [6] = assay: Cytotoxicity against human HeLa cells assessed as cell viability incubated for 48 hrs by MTT assay; type: functional, cell-based
# [7] = Anticancer activity against human Lu1 cells; type: functional, cell-based
# P388 = assay: Anticancer activity against mouse P388 cells; type: functional, cell-based
# MCF7 [8] = assay: Anticancer activity against human MCF7 cells; type: functional, cell-based
# HL-60 = assay: Anticancer activity against human HL-60 cells; type: functional, cell-based
# MCF7 [9] = assay: Anticancer activity against human MCF7 cells assessed as inhibition of cell growth; type: functional, cell-based
# A549 [10] = assay: Antiproliferative activity against human A549 cells assessed as reduction in cell viability measured for 24 hrs; type: functional, cell-based; conditions: A549, 24 h
# HepG2 [11] = assay: Antiproliferative activity against human HepG2 cells assessed as cell growth inhibition by MTT assay; type: functional, cell-based
# PC-3 = assay: Antiproliferative activity against human PC-3 cells assessed as reduction in cell viability measured for 24 hrs; type: functional, cell-based; conditions: PC-3, 24 h
# A549 [12] = assay: Antiproliferative activity against human A549 cells assessed as cell growth inhibition by MTT assay; type: functional, cell-based
# HCT-15 = assay: Antiproliferative activity against human HCT-15 cells assessed as cell growth inhibition by MTT assay; type: functional, cell-based
# [13] = Cytotoxicity against human HCEC cells; type: toxicity, cell-based
# SGC-7901 = assay: Antiproliferative activity against human SGC-7901 cells assessed as reduction in cell viability measured for 24 hrs; type: functional, cell-based; conditions: SGC-7901, 24 h
# Hep 3B2 = assay: Antiproliferative activity against human Hep3B cells assessed as reduction in cell viability; type: functional, cell-based
# OVCAR-3 = assay: Antiproliferative activity against human OVCAR-3 cells assessed as reduction in cell viability; type: functional, cell-based
# HepG2 [14] = assay: Antiproliferative activity against human HepG2 cells assessed as reduction in cell viability; type: functional, cell-based
# A2780 = assay: Antiproliferative activity against human A2780 cells assessed as reduction in cell viability; type: functional, cell-based
# SMMC-7721 = assay: Antiproliferative activity against human SMMC-7721 cells; type: functional, cell-based
smiles,measurement,setting,value
Cc1cn([C@H]2C[C@H](n3cc(CNC(=O)CC(C)CC(=O)O[C@@H]4O[C@@H]5O[C@@]6(C)CC[C@H]7[C@H](C)CC[C@@H]([C@H]4C)[C@@]57OO6)nn3)[C@@H](CO)O2)c(=O)[nH]c1=O (some centres not stated),IC50,KB,47.6 µM
same,IC50,HepG2 [1],47.6 µM
C[C@H]1[C@@H](CCCOP(=O)(Oc2ccccc2)Oc2ccccc2)O[C@@H]2O[C@@]3(C)CC[C@H]4[C@H](C)CC[C@@H]1[C@@]24OO3,IC50,HCT-116 [2],3.82 µM
same,IC50,HeLa [3],3.82 µM
C[C@H]1[C@@H](OC(=O)CCC(=O)NCC(C)(C)CNc2c3c4ccccc4nc-3n(C)c3ccc(Cl)cc23)O[C@@H]2O[C@@]3(C)CC[C@H]4[C@H](C)CC[C@@H]1[C@@]24OO3,IC50,A549 [4],0.072 µM
same,IC50,HCT-116 [5],0.072 µM
same,IC50,MV4-11,0.072 µM
COC(=O)c1ccc2c(c1)c(NCCCNC(=O)CCC(=O)O[C@H]1O[C@@H]3O[C@@]4(C)CC[C@H]5[C@H](C)CC[C@@H]([C@H]1C)[C@@]35OO4)c1c3ccccc3nc-1n2C,IC50,A549 [4],0.072 µM
same,IC50,HCT-116 [5],0.072 µM
same,IC50,MV4-11,0.072 µM
"Cc1cn(C2C[C@H](n3cc(COC(=O)CCC(=O)O[C@@H]4O[C@@H]5O[C@@]6(C)CC[C@H]7[C@H](C)CC[C@@H]([C@H]4C)[C@@]57OO6)nn3)[C@@H](CO)O2)c(=O)[nH]c1=O (single isomer, unassigned)",IC50,KB,16.5 µM
same,IC50,HepG2 [1],16.5 µM
COc1ccc2c(N3CCN(CCCNCCO[C@H]4O[C@@H]5O[C@@]6(C)CC[C@H]7[C@H](C)CC[C@@H]([C@H]4C)[C@@]57OO6)CC3)c3ccc(Cl)cc3nc2c1,IC50,HeLa [6],0.8 µM
C[C@H]1[C@@H](OC(=O)CCC(=O)NCCCNc2c3ccccc3nc3c2[nH]c2ccccc23)O[C@@H]2O[C@@]3(C)CC[C@H]4[C@H](C)CC[C@@H]1[C@@]24OO3,IC50,A549 [4],0.286 µM
same,IC50,HCT-116 [5],0.286 µM
same,IC50,MV4-11,0.286 µM
COc1ccc2nc3cc(Cl)ccc3c(N3CCN(CCNCCO[C@H]4O[C@@H]5O[C@@]6(C)CC[C@H]7[C@H](C)CC[C@@H]([C@H]4C)[C@@]57OO6)CC3)c2c1,IC50,HeLa [6],0.4 µM
Cc1c2ccncc2c(C)c2c1[nH]c1ccccc12 [ELLIPTECINE],IC50,KB,0.81 µM
same,IC50,[7],1.7 µM
same,IC50,HepG2 [1],0.93 µM
same,IC50,P388,1.7 µM
same,IC50,MCF7 [8],1.7 µM
same,IC50,HL-60,1.7 µM
same,IC50,MCF7 [9],1.7 µM
O=c1[nH]cc(F)c(=O)[nH]1 [FLUOROURACIL],IC50,A549 [10],6.8 µM
same,IC50,HepG2 [11],33.7 µM
same,IC50,MCF7 [8],> 40 µM
same,IC50,PC-3,6.8 µM
same,IC50,A549 [12],33.7 µM
same,IC50,HCT-15,33.7 µM
same,IC50,[13],> 100 µM
same,IC50,SGC-7901,6.8 µM
CCN(CC)c1ccc2cc(C(=O)NCCNC(=O)CN3CCN(CCC[C@H]4O[C@@H]5O[C@@]6(C)CC[C@H]7[C@H](C)CC[C@@H]([C@H]4C)[C@@]57OO6)CC3)c(=O)oc2c1,IC50,Hep 3B2,2.33 µM
same,IC50,OVCAR-3,2.33 µM
same,IC50,HepG2 [14]; hepg2,2.33 µM and 6.28 µM
same,IC50,A2780,2.33 µM
C[C@@H]1CC[C@@H]2[C@]34OO[C@](C)(CC[C@@H]13)O[C@H]4OC(=O)[C@@]21CC(c2ccccc2)=NO1,IC50,HepG2 [11],4.04 µM
same,IC50,A549 [12],4.04 µM
same,IC50,HCT-15,4.04 µM
COc1ccc(Sc2cccc(C(=O)O[C@@H]3O[C@@H]4O[C@@]5(C)CC[C@H]6[C@H](C)[C@H](OC(=O)c7cccc(Sc8ccc(OC)cc8)c7)C[C@@H]([C@H]3C)[C@@]46OO5)c2)cc1,IC50,A549 [10],1.6 µM
same,IC50,PC-3,1.6 µM
same,IC50,SGC-7901,1.6 µM
C[C@H]1[C@@H](OCCc2cn(-c3cccc(C(=O)N4CCCCC4)c3)nn2)O[C@@H]2O[C@@]3(C)CC[C@H]4[C@H](C)CC[C@@H]1[C@@]24OO3,IC50,[7],5.7 µM
same,IC50,P388,5.7 µM
same,IC50,MCF7 [8],5.7 µM
same,IC50,HL-60,5.7 µM
same,IC50,MCF7 [9],5.7 µM
C[C@H]1[C@H](N2CCS(=O)(=O)[C@H](CCCCCCOC(=O)c3ccc([N+](=O)[O-])cc3C(=O)O)C2)O[C@@H]2O[C@@]3(C)CC[C@H]4[C@H](C)CC[C@@H]1[C@@]24OO3,IC50,SMMC-7721,0.06 µM
C[C@H]1[C@@H](CCCOP(=O)(O)Oc2ccccc2)O[C@@H]2O[C@@]3(C)CC[C@H]4[C@H](C)CC[C@@H]1[C@@]24OO3,IC50,HCT-116 [2],3.82 µM
same,IC50,HeLa [3],3.82 µM
C[C@H]1[C@@H](OC(=O)CCC(=O)NCCCNc2c3c4ccccc4nc-3n(C)c3ccccc23)O[C@@H]2O[C@@]3(C)CC[C@H]4[C@H](C)CC[C@@H]1[C@@]24OO3,IC50,A549 [4],0.072 µM
same,IC50,HCT-116 [5],0.072 µM
same,IC50,MV4-11,0.072 µM
C[C@H]1[C@@H](OC(=O)CCC(=O)NCC(C)(C)CNc2c3c4ccccc4nc-3n(C)c3ccc(Br)cc23)O[C@@H]2O[C@@]3(C)CC[C@H]4[C@H](C)CC[C@@H]1[C@@]24OO3,IC50,A549 [4],0.072 µM
same,IC50,HCT-116 [5],0.072 µM
same,IC50,MV4-11,0.072 µM
Cc1cn([C@H]2C[C@H](n3cc(COC(=O)CCCC(=O)O[C@@H]4O[C@@H]5O[C@@]6(C)CC[C@H]7[C@H](C)CC[C@@H]([C@H]4C)[C@@]57OO6)nn3)[C@@H](CO)O2)c(=O)[nH]c1=O,IC50,KB,16.5 µM
same,IC50,HepG2 [1],16.5 µM
COC(=O)c1ccc2c(c1)c(NCC(C)(C)CNC(=O)CCC(=O)O[C@H]1O[C@@H]3O[C@@]4(C)CC[C@H]5[C@H](C)CC[C@@H]([C@H]1C)[C@@]35OO4)c1c3ccccc3nc-1n2C,IC50,A549 [4],0.072 µM
same,IC50,HCT-116 [5],0.072 µM
same,IC50,MV4-11,0.072 µM
C[C@H]1[C@@H](CC(COP(=O)(O)Oc2ccccc2)C[C@H]2O[C@@H]3O[C@]4(C)CC[C@H]5[C@H](C)CC[C@@H]([C@H]2C)[C@@]35OO4)O[C@@H]2O[C@@]3(C)CC[C@H]4[C@H](C)CC[C@@H]1[C@@]24OO3 (some centres not stated),IC50,HCT-116 [2],0.04 µM
same,IC50,HeLa [3],0.04 µM
CCN(CC)c1ccc2cc(C(=O)N3CCN(C(=O)CN4CCN(CCC[C@H]5O[C@@H]6O[C@@]7(C)CC[C@H]8[C@H](C)CC[C@@H]([C@H]5C)[C@@]68OO7)CC4)CC3)c(=O)oc2c1,IC50,Hep 3B2,2.33 µM
same,IC50,OVCAR-3,2.33 µM
same,IC50,HepG2 [14]; hepg2,2.33 µM and 6.28 µM
same,IC50,A2780,2.33 µM
C[C@H]1[C@H](Sc2ccccc2)O[C@@H]2O[C@@]3(C)CC[C@H]4[C@H](C)CC[C@@H]1[C@@]24OO3,IC50,[13],0.93 µM
COc1ccc(Sc2cccc(C(=O)O[C@@H]3O[C@@H]4O[C@@]5(C)CC[C@H]6[C@H](C)[C@H](O)C[C@@H]([C@H]3C)[C@@]46OO5)c2)cc1,IC50,A549 [10],4.3 µM
same,IC50,PC-3,4.3 µM
same,IC50,SGC-7901,4.3 µM
CCN(CC)c1ccc2cc(C(=O)N3CCN(CCC[C@H]4O[C@@H]5O[C@@]6(C)CC[C@H]7[C@H](C)CC[C@@H]([C@H]4C)[C@@]57OO6)CC3)c(=O)oc2c1,IC50,Hep 3B2,2.33 µM
same,IC50,OVCAR-3,2.33 µM
same,IC50,"HepG2 [14]; Homo sapiens, HepG2",2.33 µM
same,IC50,A2780,2.33 µM
C[C@H]1[C@@H](Sc2ccccc2)O[C@@H]2O[C@@]3(C)CC[C@H]4[C@H](C)CC[C@@H]1[C@@]24OO3,IC50,[13],5.24 µM
CC1=CN([C@H]2C[C@H](n3cc(-c4cccc(NC(=O)CCC(=O)O[C@@H]5O[C@@H]6O[C@@]7(C)CC[C@H]8[C@H](C)CC[C@@H]([C@H]5C)[C@@]68OO7)c4)nn3)[C@@H](CO)O2)C(C)NC1=O (some centres not stated),IC50,KB,47.6 µM
same,IC50,HepG2 [1],47.6 µM
Cc1cn([C@H]2C[C@H](n3cc(CNC(=O)CCCC(=O)O[C@@H]4O[C@@H]5O[C@@]6(C)CC[C@H]7[C@H](C)CC[C@@H]([C@H]4C)[C@@]57OO6)nn3)[C@@H](CO)O2)c(=O)[nH]c1=O,IC50,KB,47.6 µM
same,IC50,HepG2 [1],47.6 µM
"Cc1cn(C2C[C@H](n3cc(CNC(=O)C(C)CC(=O)O[C@@H]4O[C@@H]5O[C@@]6(C)CC[C@H]7[C@H](C)CC[C@@H]([C@H]4C)[C@@]57OO6)nn3)[C@@H](CO)O2)c(=O)[nH]c1=O (single isomer, unassigned)",IC50,KB,47.6 µM
same,IC50,HepG2 [1],47.6 µM
COC(=O)c1ccc2c(c1)c(NCC(O)CNC(=O)CCC(=O)O[C@H]1O[C@@H]3O[C@@]4(C)CC[C@H]5[C@H](C)CC[C@@H]([C@H]1C)[C@@]35OO4)c1c3ccccc3nc-1n2C (some centres not stated),IC50,A549 [4],0.072 µM
same,IC50,HCT-116 [5],0.072 µM
same,IC50,MV4-11,0.072 µM
C[C@H]1[C@@H](OCC(O)Cn2cc(-c3cccc(N)c3)nn2)O[C@@H]2O[C@@]3(C)CC[C@H]4[C@H](C)CC[C@@H]1[C@@]24OO3 (some centres not stated),IC50,KB,12.5 µM
same,IC50,HepG2 [1],32.9 µM

# Reference: ChEMBL document CHEMBL5244230, “Artemisinin-derived hybrids and their anticancer activity” (Eur J Med Chem, 2020)
